Key:
[1] = target: HSV polymerase (Human herpesvirus 1, UniProt P04293); assay: HSV polymerase assay (Table 1); format: biochemical
[2] = target: T1, HCMV polymerase (Human cytomegalovirus, UniProt P08546); assay: HCMV polymerase scintillation proximity assay (SPA); format: biochemical; conditions: HCMV polymerase, SPA; read-out: Polymerase IC50 HCMV
T1 construct: made in house; host or cells: recombinant baculovirus-infected SF-9 cells
Description: The HCMV polymerase assay is performed using a scintillation proximity assay (SPA) as described in several references, such as N. D. Cook, et al., Pharmaceutical Manufacturing International, pages 49-53 (1992); K Takeuchi, Laboratory Practice, September issue (1992); U.S. Pat. No. 4,568,649 (1986); which are incorporated by reference herein. Reactions are performed in 96-well plates. The assay is conducted in 100 μl volume with 5.4 mM HEPES (pH 7.5), 11.7 mM KCl, 4.5 mM MgCl2, 0.36 mg/ml BSA, and 90 nM ^3H-dTTP. Assays are run with and without CHAPS, (3-[(3-Cholamidopropyl)-dimethylammonio]-1-propane-sulfonate) at a final concentration of 2 mM. HCMV polymerase is diluted in enzyme dilution buffer containing 50% glycerol, 250 mM NaCl, 10 mM HEPES (pH 7.5), 100 μg/ml BSA, and 0.01% sodium azide. The HCMV polymerase, which is expressed in, recombinant baculovirus-infected SF-9 cells and purified according to literature procedures, is added at 10% (or 10 μl) of the final reaction volume, i.e., 100 μl. Compounds are diluted in 50% DMSO and 10 μl are added to each well. Control wells contain an equivalent concentration of DMSO. Unless noted otherwise, reactions are initiated via the addition of 6 nM biotinylated poly(dA)-oligo(dT) template/primer to reaction mixtures containing the enzyme, substrate, and compounds of interest. Plates are incubated in a 25° C. or 37° C. H2O bath and terminated via the addition of 40 μl/reaction of 0.5 M EDTA (pH 8) per well. Reactions are terminated within the time-frame during which substrate incorporation is linear and varied depending upon the enzyme and conditions used, i.e., 30 min. for HCMV polymerase. Ten (10) 10 μL of streptavidin-SPA beads (20 mg/ml in PBS/10% glycerol) are added following termination of the reaction. Plates are incubated 10 min. at 37° C., then equilibrated to room temperature, and counted on a Packard Topcount. Linear regressions are performed and IC50's are calculated using computer software.
A modified version of the above HCMV polymerase assay is performed as described above, but with the following changes: Compounds are diluted in 100% DMSO until final dilution into assay buffer. In the previous assay, compounds are diluted in 50% DMSO. 4.5 mM Dithiothreitol (DTT) is added to the polymerase buffer.
All results are listed as Polymerase IC50 ([…]) values. In Table 1, the term “n.d.” refers to activity data not determined.

[3] = target: VZV polymerase (Varicella-zoster virus, UniProt P09252); assay: VZV polymerase assay (Table 1); format: biochemical
Sequence of VZV polymerase (P09252 whole entry): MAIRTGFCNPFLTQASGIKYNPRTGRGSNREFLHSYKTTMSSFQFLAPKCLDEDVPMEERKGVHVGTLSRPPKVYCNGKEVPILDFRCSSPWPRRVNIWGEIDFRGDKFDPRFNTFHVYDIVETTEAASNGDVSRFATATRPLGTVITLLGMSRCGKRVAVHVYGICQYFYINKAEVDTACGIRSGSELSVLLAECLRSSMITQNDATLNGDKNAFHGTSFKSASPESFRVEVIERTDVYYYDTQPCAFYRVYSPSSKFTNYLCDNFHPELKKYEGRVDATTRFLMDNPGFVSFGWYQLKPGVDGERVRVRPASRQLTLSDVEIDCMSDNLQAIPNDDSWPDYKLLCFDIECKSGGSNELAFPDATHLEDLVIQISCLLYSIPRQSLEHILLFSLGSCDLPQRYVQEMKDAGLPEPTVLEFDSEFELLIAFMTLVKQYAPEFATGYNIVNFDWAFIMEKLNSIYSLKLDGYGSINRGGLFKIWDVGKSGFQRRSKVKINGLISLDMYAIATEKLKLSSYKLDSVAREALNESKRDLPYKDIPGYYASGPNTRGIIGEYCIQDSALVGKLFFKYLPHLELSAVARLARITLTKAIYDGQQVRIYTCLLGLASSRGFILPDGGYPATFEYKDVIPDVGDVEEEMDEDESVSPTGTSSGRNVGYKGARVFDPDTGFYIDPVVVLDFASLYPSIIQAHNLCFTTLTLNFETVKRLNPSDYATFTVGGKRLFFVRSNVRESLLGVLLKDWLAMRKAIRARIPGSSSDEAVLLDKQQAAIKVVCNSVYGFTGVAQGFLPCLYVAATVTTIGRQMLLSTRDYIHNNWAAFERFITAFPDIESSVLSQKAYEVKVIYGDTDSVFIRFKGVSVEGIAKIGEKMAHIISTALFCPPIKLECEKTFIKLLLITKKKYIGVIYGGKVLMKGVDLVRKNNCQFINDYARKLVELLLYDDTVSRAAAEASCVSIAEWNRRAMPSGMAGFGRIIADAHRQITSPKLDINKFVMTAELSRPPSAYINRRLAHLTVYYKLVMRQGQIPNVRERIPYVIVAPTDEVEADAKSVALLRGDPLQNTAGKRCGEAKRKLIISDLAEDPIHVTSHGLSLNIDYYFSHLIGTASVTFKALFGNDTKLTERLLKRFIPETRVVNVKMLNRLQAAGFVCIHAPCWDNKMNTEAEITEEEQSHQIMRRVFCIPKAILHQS

Sequence of HSV polymerase (P04293 whole entry): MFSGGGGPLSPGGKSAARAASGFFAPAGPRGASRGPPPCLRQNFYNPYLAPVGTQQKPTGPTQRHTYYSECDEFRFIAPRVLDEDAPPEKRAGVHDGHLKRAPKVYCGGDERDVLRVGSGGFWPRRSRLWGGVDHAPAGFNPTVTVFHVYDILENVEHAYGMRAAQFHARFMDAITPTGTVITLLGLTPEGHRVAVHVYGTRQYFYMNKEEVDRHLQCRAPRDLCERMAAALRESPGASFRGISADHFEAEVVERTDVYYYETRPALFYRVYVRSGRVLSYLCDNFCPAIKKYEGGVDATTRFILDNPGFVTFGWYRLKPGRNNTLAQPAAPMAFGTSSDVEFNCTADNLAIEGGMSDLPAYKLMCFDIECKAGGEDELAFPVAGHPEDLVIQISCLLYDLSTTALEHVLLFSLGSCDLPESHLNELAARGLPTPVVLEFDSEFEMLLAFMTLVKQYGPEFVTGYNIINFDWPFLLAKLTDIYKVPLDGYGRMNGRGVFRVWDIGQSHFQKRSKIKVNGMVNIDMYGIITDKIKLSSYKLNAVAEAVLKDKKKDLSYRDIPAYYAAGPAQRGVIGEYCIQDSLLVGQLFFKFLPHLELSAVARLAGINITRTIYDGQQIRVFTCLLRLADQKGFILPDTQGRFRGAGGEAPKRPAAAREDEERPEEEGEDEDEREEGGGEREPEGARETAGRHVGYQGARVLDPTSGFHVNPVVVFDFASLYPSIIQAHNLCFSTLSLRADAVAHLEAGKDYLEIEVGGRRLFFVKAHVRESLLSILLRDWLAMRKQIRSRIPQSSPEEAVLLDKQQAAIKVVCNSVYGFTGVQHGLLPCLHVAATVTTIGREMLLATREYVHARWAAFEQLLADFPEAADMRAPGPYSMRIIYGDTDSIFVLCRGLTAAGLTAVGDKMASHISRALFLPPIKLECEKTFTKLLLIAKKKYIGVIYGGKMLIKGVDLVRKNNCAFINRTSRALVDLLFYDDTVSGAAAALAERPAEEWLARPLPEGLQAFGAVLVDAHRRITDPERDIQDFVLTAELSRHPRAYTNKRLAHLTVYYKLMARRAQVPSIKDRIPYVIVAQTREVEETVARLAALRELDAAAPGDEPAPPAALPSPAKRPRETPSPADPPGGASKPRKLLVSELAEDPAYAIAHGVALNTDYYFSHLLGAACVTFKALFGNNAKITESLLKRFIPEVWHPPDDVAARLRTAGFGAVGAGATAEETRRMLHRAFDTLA
T1 sequence (P08546 whole entry): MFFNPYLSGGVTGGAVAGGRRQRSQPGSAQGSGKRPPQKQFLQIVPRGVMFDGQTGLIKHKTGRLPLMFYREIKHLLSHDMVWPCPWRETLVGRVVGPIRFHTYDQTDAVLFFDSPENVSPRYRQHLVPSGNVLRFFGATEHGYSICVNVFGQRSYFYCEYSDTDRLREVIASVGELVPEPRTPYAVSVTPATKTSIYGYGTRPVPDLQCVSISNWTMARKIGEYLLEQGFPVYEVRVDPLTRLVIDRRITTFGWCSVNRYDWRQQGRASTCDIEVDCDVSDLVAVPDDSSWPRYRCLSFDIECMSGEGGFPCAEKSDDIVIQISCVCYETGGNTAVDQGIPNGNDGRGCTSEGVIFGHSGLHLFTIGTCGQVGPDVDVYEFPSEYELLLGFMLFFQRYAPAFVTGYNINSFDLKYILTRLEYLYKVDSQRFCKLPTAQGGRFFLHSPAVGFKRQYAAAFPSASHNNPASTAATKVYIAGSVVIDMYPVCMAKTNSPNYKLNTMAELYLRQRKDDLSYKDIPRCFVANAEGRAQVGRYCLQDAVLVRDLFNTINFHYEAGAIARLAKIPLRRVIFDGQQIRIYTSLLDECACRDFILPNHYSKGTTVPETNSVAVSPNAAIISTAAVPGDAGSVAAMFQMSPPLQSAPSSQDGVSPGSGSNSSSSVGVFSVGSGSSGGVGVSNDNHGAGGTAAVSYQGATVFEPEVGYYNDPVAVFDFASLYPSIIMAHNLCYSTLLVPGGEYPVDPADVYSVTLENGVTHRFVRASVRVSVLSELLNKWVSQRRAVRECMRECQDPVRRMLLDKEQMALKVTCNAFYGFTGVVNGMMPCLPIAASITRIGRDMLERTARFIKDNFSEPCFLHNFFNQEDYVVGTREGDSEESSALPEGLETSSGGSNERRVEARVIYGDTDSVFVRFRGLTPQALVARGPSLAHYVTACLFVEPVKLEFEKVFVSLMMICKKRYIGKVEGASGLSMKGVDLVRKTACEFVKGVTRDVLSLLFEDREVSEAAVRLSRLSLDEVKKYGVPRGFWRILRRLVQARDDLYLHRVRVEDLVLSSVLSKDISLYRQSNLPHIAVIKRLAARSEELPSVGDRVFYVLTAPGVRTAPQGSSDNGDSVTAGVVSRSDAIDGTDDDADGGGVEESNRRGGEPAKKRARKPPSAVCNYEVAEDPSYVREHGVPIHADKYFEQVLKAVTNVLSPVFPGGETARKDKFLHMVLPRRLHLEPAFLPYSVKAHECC

| melting point [°C] | IC50 [1] [nM] | IC50 [2] [nM] | IC50 [3] [nM] | Structure (SMILES) |
| --- | --- | --- | --- | --- |
| 130 to 133 | 550 | 370 | 170 | CCn1cc(C(=O)NCc2ccc(Cl)cc2)c(=O)c2cc(CN(C)CC(O)c3cnccn3)sc21 (racemic) [Example 13, rac-N-(4-Chlorobenzyl)-7-ethyl-2-(((2-hydroxy-2-pyrazin-2-ylethyl)(methyl)amino)methyl)-4-oxo-4,7-dihydrothieno[2,3-b]pyridine-5-carboxamide] |
| 132 to 135 | 350 | 80 | 130 | CN(Cc1cc2c(=O)c(C(=O)NCc3ccc(Cl)cc3)cn(C)c2s1)CC(O)c1cccnc1 (single isomer, unassigned; (+)) [Example 2, (+)-N-(4-Chlorobenzyl)-2-(((2-hydroxy-2-pyridin-3-ylethyl)(methyl)amino)methyl)-7-methyl-4-oxo-4,7-dihydrothieno[2,3-b]pyridine-5-carboxamide] |
| 139 to 144 | 60 | 60 | 20 | CN(Cc1cc2c(=O)c(C(=O)NCc3ccc(Cl)cc3)cn(C)c2s1)C[C@@H](O)c1ccccn1 [Example 5, (+)-N-(4-Chlorobenzyl)-2-((((2R)-2-hydroxy-2-pyridin-2-ylethyl)(methyl)amino)methyl)-7-methyl-4-oxo-4,7-dihydrothieno[2,3-b]pyridine-5-carboxamide] |

From patent publication US20040110787A1, “Heteroaryl-ethanolamine derivatives as antiviral agents” (priority 2002, published 2004)
